This is an account of results in US20110059985A1, “NOVEL FORMULATION” (priority 2007, published 2011).

Like-named read-outs stand apart in the source and are kept apart here. Marks after values point to notes of the source that are not given here.

Data set [1] is described as follows: Fungicidal concentrations of abafungin (stated in Example 4). In kind it is cell-based.
Data set [2] in a line: Abafungin solubility in excipients (Example 1). In kind it is physicochemical. The procedure:
To order to study the solubility of abafungin, abafungin was dissolved in a number of excipients.

For data set [3] the following is noted: not measured, data according to Neues Rezeptur-Formularium, cited from earlier work.

As for `Cc1ccc(Oc2ccccc2-c2csc(N=C3NCCCN3)n2)c(C)c1` [abafungin], the fungicidal concentrations in data set [1] lay in the range of 16 to 30 µg/mL. The Not soluble result in data set [2] (excipient: MPEG 550), in data set [2] (excipient: MPEG 2000), in data set [2] (excipient: PEG 400), in data set [2] (excipient: PEG 1500), in data set [2] (excipient: PEG 4500) and in data set [2] (excipient: PEG 6000) was “✓” throughout. The Not soluble entry in data set [2] (excipient: PEG 12000), in data set [2] (excipient: PEG 20000), in data set [2] (excipient: cetearyl ethylhexanoate (cosmetic oils)), in data set [2] (excipient: decyl oleate (cosmetic oils)), in data set [2] (excipient: ethanol) and in data set [2] (excipient: ethanol 70%) was “✓” each time. Also, the Not soluble entry in data set [2] (excipient: glycerine), in data set [2] (excipient: isopropanol), in data set [2] (excipient: isopropyl myristate (cosmetic oils)), in data set [2] (excipient: isopropyl palmitate (cosmetic oils)), in data set [2] (excipient: medium chain triglyceride (cosmetic oils)) and in data set [2] (excipient: propylene glycol) was “✓” in each case. Moreover, the Not soluble result in data set [2] (excipient: water) is listed as “✓”. Further, the Soluble result in data set [2] (excipient: transcutol) is listed as “✓ (3%)”. In data set [2] (mixture of water, polyethylene glycol, polyethylene glycol monomethyl ether and an acid such as formic acid), the “solubility” value is reported as “soluble”.
In the case of `Cc1cc(C2CCCCC2)n(O)c(=O)c1` [Ciclopirox Olamine], the results for the maximum solubility entry in data set [3] (Ethanol gel (NRF 11.84)), in data set [3] (Pure ethanol) and in data set [3] (Pure water) were “~soluble*^5”, “~soluble*^5” and ~1-3%*^5, respectively.
